The source made the active and inactive calls. The rule behind the calls is not given here.
What was measured:
[1] = tested on: Vaccinia virus WR; test: Antiviral activity against Vaccinia virus WR ATCC VR-1354 infected through percutaneous route in BALB/c mouse assessed as protection against weight loss at 100 mg/kg, po qd for 1 to 3 days measured on day 8; type: functional, organism-based; set-up: dose 100 mg/kg
[2] = tested on: Vaccinia virus WR; test: Antiviral activity against Vaccinia virus WR ATCC VR-1354 infected through intravenous route in BALB/c mouse assessed as reduction of viral load in liver at 100 mg/kg, po qd measured after 14 days postinfection by RT-PCR analysis relative to control; type: functional, organism-based; set-up: dose 100 mg/kg
[3] = tested on: Vaccinia virus WR; test: Antiviral activity against Vaccinia virus WR ATCC VR-1354 infected through intravenous route in BALB/c mouse assessed as reduction of viral load in spleen at 100 mg/kg, po qd measured after 14 days postinfection by RT-PCR analysis relative to control; type: functional, organism-based; set-up: dose 100 mg/kg
[4] = tested on: Vaccinia virus WR; test: Antiviral activity against Vaccinia virus WR ATCC VR-1354 infected through percutaneous route in BALB/c mouse assessed as reduction of viral load in blood at 100 mg/kg, po qd measured after 5 days postinfection by RT-PCR analysis relative to control; type: functional
[5] = tested on: Vaccinia virus WR; test: Antiviral activity against Vaccinia virus WR ATCC VR-1354 infected through percutaneous route in BALB/c mouse assessed as reduction of viral load in spleen at 100 mg/kg, po qd measured after 5 days postinfection by RT-PCR analysis relative to control; type: functional
[6] = tested on: Vaccinia virus WR; test: Antiviral activity against Vaccinia virus WR ATCC VR-1354 infected through percutaneous route in BALB/c mouse assessed as reduction of viral load in liver at 100 mg/kg, po qd measured after 13 days postinfection by RT-PCR analysis relative to control; type: functional, organism-based; set-up: dose 100 mg/kg
[7] = tested on: Vaccinia virus WR; test: Antiviral activity against Vaccinia virus WR ATCC VR-1354 infected through percutaneous route in BALB/c mouse assessed as reduction of viral load in liver at 100 mg/kg, po qd measured after 5 days postinfection by RT-PCR analysis relative to control; type: functional
[8] = tested on: Vaccinia virus WR; test: Antiviral activity against Vaccinia virus WR ATCC VR-1354 infected through dermal scarification route in BALB/c mouse assessed as reduction of viral load in liver at 100 mg/kg, po qd measured after 14 days postinfection by RT-PCR analysis relative to control; type: functional, organism-based; set-up: dose 100 mg/kg
[9] = tested on: Vaccinia virus WR; test: Antiviral activity against Vaccinia virus WR ATCC VR-1354 infected through percutaneous route in BALB/c mouse assessed as protection against virus-induced systemic disease symptoms at 100 mg/kg, po qd measured after 6 days postinfection; type: functional, organism-based; set-up: dose 100 mg/kg
[10] = tested on: Vaccinia virus WR; test: Antiviral activity against Vaccinia virus WR ATCC VR-1354 infected through dermal scarification route in ACAM2000 vaccinated BALB/c mouse assessed as reduction of swab virus titers at 100 mg/kg, po qd measured after 14 days postinfection by RT-PCR analysis relative to control; type: functional
[11] = tested on: Vaccinia virus WR; test: Antiviral activity against Vaccinia virus WR ATCC VR-1354 infected through percutaneous route in BALB/c mouse assessed as inhibition of virus dissemination in liver at 100 mg/kg, po qd for 1 day by RT-PCR analysis; type: functional, organism-based; set-up: dose 100 mg/kg
[12] = tested on: Vaccinia virus WR; test: Antiviral activity against Vaccinia virus WR ATCC VR-1354 infected through percutaneous route in BALB/c mouse assessed as inhibition of virus dissemination in brain at 100 mg/kg, po qd for 3 to 14 days by RT-PCR analysis; type: functional, organism-based; set-up: dose 100 mg/kg
[13] = tested on: Vaccinia virus WR; test: Antiviral activity against Vaccinia virus WR ATCC VR-1354 infected through intraperitoneal route in BALB/c mouse assessed as reduction of viral load in brain at 100 mg/kg, po qd measured after 3 days postinfection by RT-PCR analysis relative to control; type: functional, organism-based; set-up: dose 100 mg/kg
[14] = tested on: Vaccinia virus WR; test: Antiviral activity against Vaccinia virus WR ATCC VR-1354 infected through dermal scarification route in BALB/c mouse assessed as reduction of viral load in lung at 100 mg/kg, po qd measured after 5 days postinfection by RT-PCR analysis relative to control; type: functional
[15] = tested on: Vaccinia virus WR; test: Antiviral activity against Vaccinia virus WR ATCC VR-1354 infected through subcutaneous route in BALB/c mouse assessed as protection against virus-induced conjunctivitis in mouse eyes at 100 mg/kg, po qd measured after 6 days postinfection; type: functional, organism-based; set-up: dose 100 mg/kg
[16] = tested on: Vaccinia virus WR; test: Antiviral activity against Vaccinia virus WR ATCC VR-1354 infected through percutaneous route in BALB/c mouse assessed as inhibition of virus dissemination in spleen at 100 mg/kg, po qd for 1 day by RT-PCR analysis relative to control; type: functional
[17] = tested on: Vaccinia virus WR; test: Antiviral activity against Vaccinia virus WR ATCC VR-1354 infected through intraperitoneal route in BALB/c mouse assessed as reduction of viral load in spleen at 100 mg/kg, po qd measured after 5 days postinfection by RT-PCR analysis relative to control; type: functional, organism-based; set-up: dose 100 mg/kg
[18] = tested on: Vaccinia virus WR; test: Antiviral activity against Vaccinia virus WR ATCC VR-1354 infected through percutaneous route in BALB/c mouse assessed as protection against virus-induced death at 100 mg/kg, po qd administered 4 days after postinfection measured on day 6; type: functional, organism-based; set-up: dose 100 mg/kg
[19] = tested on: Vaccinia virus WR; test: Antiviral activity against Vaccinia virus WR ATCC VR-1354 infected through dermal scarification route in ACAM2000 vaccinated BALB/c mouse assessed as reduction of swab virus titers at 100 mg/kg, po qd measured after 21 days postinfection by RT-PCR analysis relative to control; type: functional
[20] = tested on: Vaccinia virus WR; test: Antiviral activity against Vaccinia virus WR ATCC VR-1354 in african green monkey BSC-40 cells infected with 7 day postinfection nasal fluid from 100 mg/kg, po qd compound treated BALB/c mouse infected through percutaneous route assessed as reduction of viral attachment to cells by plaque titration assay; type: functional
[21] = tested on: Vaccinia virus WR; test: Antiviral activity against Vaccinia virus WR ATCC VR-1354 infected through subcutaneous route in BALB/c mouse assessed as protection against virus-induced systemic disease symptoms at 100 mg/kg, po qd measured after 9 days postinfection; type: functional, organism-based; set-up: dose 100 mg/kg
[22] = tested on: Vaccinia virus WR; test: Antiviral activity against Vaccinia virus WR ATCC VR-1354 infected through percutaneous route in BALB/c mouse assessed as reduction of viral load in lungs at 100 mg/kg, po qd measured after 5 days postinfection by RT-PCR analysis relative to control; type: functional
[23] = tested on: Vaccinia virus WR; test: Antiviral activity against Vaccinia virus WR ATCC VR-1354 infected through percutaneous route in BALB/c mouse assessed as reduction of viral load in lungs at 100 mg/kg, po qd measured after 3 days postinfection by RT-PCR analysis relative to control; type: functional
[24] = tested on: Vaccinia virus WR; test: Antiviral activity against Vaccinia virus WR ATCC VR-1354 infected through intraperitoneal route in BALB/c mouse assessed as reduction of viral load in blood at 100 mg/kg, po qd measured after 3 days postinfection by RT-PCR analysis relative to control; type: functional, organism-based; set-up: dose 100 mg/kg
[25] = tested on: Vaccinia virus WR; test: Antiviral activity against Vaccinia virus WR ATCC VR-1354 infected through percutaneous route in BALB/c mouse assessed as reduction of viral load in brain at 100 mg/kg, po qd measured after 5 days postinfection by RT-PCR analysis relative to control; type: functional
[26] = tested on: Vaccinia virus WR; test: Antiviral activity against Vaccinia virus WR ATCC VR-1354 infected through intraperitoneal route in BALB/c mouse assessed as reduction of viral load in brain at 100 mg/kg, po qd measured after 5 days postinfection by RT-PCR analysis relative to control; type: functional, organism-based; set-up: dose 100 mg/kg

In the case of `O=C(NN1C(=O)[C@@H]2[C@@H]3C=C[C@@H]([C@H]4C[C@@H]34)[C@@H]2C1=O)c1ccc(C(F)(F)F)cc1` [TECOVIRIMAT], the Activity [1] is reported as “inactive”, the Activity [2] is reported as “Active” and the Activity [3] is reported as “Active”. For the same compound, the “fold change (FC)” value [4] was 90, the “fold change (FC)” value [5] was 44000 and the Activity [6] was “Active”. For the same compound, the “fold change (FC)” value [7] was 300, the Activity [8] was “Active” and the Activity [9] was “Active”. The “fold change (FC)” value [10] was 25, the Activity [11] was “inactive” and the Activity [12] was “Active”. For the same compound, the Activity [13] was “inactive”, the “fold change (FC)” value [14] was 18 and the Activity [15] was “Active”. The “fold change (FC)” value [16] was 17, the Activity [17] was “Active” and the Activity [18] was “inactive”. For the same compound, the “fold change (FC)” value [19] was 3900, the “fold change (FC)” value [20] was 22 and the Activity [21] was “Active”. For the same compound, the “fold change (FC)” value [22] was 3.5, the “fold change (FC)” value [23] was 4 and the Activity [24] was “inactive”. For the same compound, the “fold change (FC)” value [25] was 13 and the Activity [26] was “Active”.
